SMILES strings stand for the structures. Where two headings read alike, the source gives them in different places. Non-standard residues stand in square brackets, D forms with d. Residues, ends and D or L forms follow the SMILES beside them. Dip = N[C@H](C(=O)O)C(c1ccccc1)c1ccccc1

On the set-up of data set [1]: method as in earlier work. The note with it: cited from earlier work. The text has this: In continuation of our efforts to design cyclic CPPs with improved molecular transporter properties, we report here the design and synthesis of a new class of CPPs, containing R, diphenylalanine (Dip), and W residues (Figure 1), the evaluation of their cytotoxicity, cellular uptake, nanostructure formation, and mechanism of actions.

Data set [2] is described as follows: Circular dichroism, estimate of secondary structure. Format: physicochemical. The note with it: CD, 100 µM peptide in water, principal component regression analysis. As for the experimental part:
Samples were prepared in 100 µM concentration dissolved in water only. The cuvette with the 1 mm path length was used for all the measurements. The circular dichroism analysis was performed with a J-1500 Jasco spectrophotometer using nitrogen gas and PM-539 detector. Parameters were selected as follows: data interval 0.1 nm, data points 701, data pitch 0.1 nm, CD scale 200 mdeg/0.1 dOD, FL scale 200 mdeg/0.1 dOD, D.I.T 2 s, bandwidth 1 nm, cell length 1 mm, start mode immediately, scanning mode continuous, scanning speed 50 nm/min, shutter control auto, and N2 flowmeter manual. An average of three readings between 190 and 260 nm were collected for each sample. The analysis was carried out using one of Multivariate Regression Analyses, which is Principal Component Regression (PCR) with a basis set containing 26 proteins reference under the following conditions: standardization of result 100, replaced negative value to zero, and rejection percentage of 1%.

Data set [3] in a line: Transmission electron microscopy, self-assembly. It is filed as physicochemical. Particulars: TEM, 30 μM, dried on grid overnight, not stained. The protocol:
Transmission electron microscopy (TEM) was done on a LVEM 5D Microscope model (Delong instruments, Brno, Czech Republic) samples were prepared on an Ultrathin Carbon Film on Lacey Carbon Support Film with 400 mesh copper from Ted Pella. Dilute solutions of 30 μM concentration were used for the TEM analysis. Samples were dropped on grids, evaporated overnight, and not stained. They were incubated for approximately 2 h after thawing from a freezer (0 to −18 °C). Samples were air-dried, and images were obtained with a LVEM5 (Delong Instruments, US) 5 keV field emission gun. The camera was Zyla 5.5 Scientific CMOS with specifications of exposure 50–200 [ms], pixel readout 200 MHz—lowest noise, dynamic range 12-bit (low noise), and summing 1.

Data set [4] concerns CCRF-CEM cells. The data set can be described thus: Cellular uptake by flow cytometry in CCRF-CEM cells. Format: cell-based, human. The note with it: peptide 10 µM, 3 h, no FBS, flow cytometry FITC, n = 3. As for the experimental part: CCRF-CEM and SK-OV-3 cells were used to measure the cellular uptake of a fluorescent-labeled phosphopeptide (F’-GpYEEI) (2 µM), stavudine (F’-d4T) (2 µM) lamivudine (F’-3TC) (1–2 µM), emtricitabine (F’-FTC) (2 µM), and siRNA (F’-siRNA) (36 nM) with the least toxic concentration for each linear and the cyclic peptide (10 µM). The uptake was measured in the presence and absence of the peptides. The SK-OV-3 (0.5 million) and CCRF-CEM (a million) cells were incubated in each well of 6-well plates with the synthesized peptide and the fluorescent-labeled compound in one well. Another well contained the fluorescent-labeled compound alone for 3 h in an incubator (37 °C in a humidified atmosphere of 5% CO2). […] For more details, please refer back to the cytotoxicity method described above.
The cells were transferred to FACS analysis tubes after being washed with phosphate-buffered saline (PBS). The cells were centrifuged 2500 RPM for 5 min with Fisher Scientific accuSpin Micro 17 to precipitate the cells and to allow replacing the supernatant. The cells were then vortexed with Nerl Blood Bank Saline pH 7–7.2 (flow cytometry buffer) and transferred to the tube through a sterile cell strainer 40 µm Nylon Mesh. Finally, the cells were resuspended in flow cytometry buffer and analyzed by flow cytometry (FACSVerse model, Becton Dickinson, San Jose, CA, USA) using the FITC channel and the BD FACSuite software. The device was washed before each experiment, and the flow rate was set at medium. Finally, the cells were analyzed by using FITC channel […] argon laser for the excitation and the emitted 519 nm fluorescence for detection. The data presented was based on the FITC-A mean intensity signal for 10,000 cells collected. All assays were performed in triplicates. Results were evaluated to determine whether the peptides are facilitating the fluorescence compound to cross the membrane.
To determine the mechanism of the cellular uptake, F’-[K(DipR)5] or the physical mixture of the F’-GpYEEI and [DipR]5 were used to measure the fluorescence in the treated CCRF-CEM cells. F’-[K(DipR)5] (5 or 10 µM) or the physical mixture of the F’-GpYEEI (2 µM) and [DipR]5 (5 or 10 µM) were incubated with CCRF-CEM cells over 3 h. After each incubation, the medium containing the peptide and cells was removed. The same protocol as the cellular uptake study was used to prepare the cells as described above. Finally, the cells were resuspended in the buffer and analyzed by flow cytometry using the FITC channel and the BD FACSuite software. The data presented was based on the percentage of FITC-A mean intensity signal for 10,000 cells collected. All assays were performed in triplicates.

The subject of another data set is SK-OV-3 cells. It is filed as cell-based, human. Particulars: MTS, n = 3. As for the experimental part:
(§1) SK-OV-3, CCRF-CEM, HEK-293, MDA-MB-468, LLC-PK1, and MES-SA were used to determine the cytotoxicity of the synthesized linear and cyclic peptides. About 5000, 10,000, and 50,000 cells were seeded for SK-OV-3, HEK-293, and CCRF-CEM cells, respectively, in 0.1 mL of medium per well of 96-well plates. An appropriate medium was used for each cell line (SK-OV-3: McCoy’s 5A with L-glutamine containing fetal bovine serum (FBS) (10%) and penicillin or streptomycin (1%); CCRF-CEM: RPMI-1640 medium with L-glutamine and sodium bicarbonate containing FBS (10%) and penicillin or streptomycin (1%); MDA-MB-468 cells: DMEM/F12 (1:1) (1×) with L-glutamine and 15 mM HEPES containing FBS (10%) and penicillin or streptomycin (1%); LLC-PK1 cells: Dulbecco’s Modified Eagle’s Medium with 4500 mg/L glucose, L-glutamine and sodium bicarbonate, without sodium pyruvate liquid containing FBS (10%) and penicillin or streptomycin (1%); MES-SA cells: consisting of half SK-OV-3 and half CCRF-CEM media; and HEK-293 cells: Minimum Essential Medium Eagle with Earle’s salts and sodium bicarbonate, without L-glutamine containing FBS (10%) and penicillin or streptomycin (1%)). Then, 20 µL of peptides containing 5% DMSO in water were added to each well.
(§2) Adhesive cells were detached with 0.05% trypsin/EDTA after 15 min. The suspended cells were seeded in the medium 24 h prior to the experiment according to the previously reported procedure. The medium was changed before adding the peptides for adherent cells. Each concentration 5, 10, 25, 50, and 166 µM (containing 0.8% DMSO) had triplicate wells to minimize possible errors. […] The cell viability was measured by utilizing Multi-Mode Microplate Reader (SpectraMax M5 model, Molecular Devices, San Jose, CA, USA) after adding 20 µL of the MTS reagent to each well and incubating for 3 additional hours. […] The protocol manager was selected “endpoint” on the spectrophotometer’s software (SoftMax Pro 7). The 96-well plates were inserted inside spectrophotometer, and the data were acquired. The percentage of cell viability was calculated using the following equation:(1) =(Average OD values of samples treated with the compound /Average OD values of no treatment samples )∗100

The next data set deals with HEK-293 cells. Format: cell-based, human. Particulars: HEK-293, 25 µM, 24 h incubation, MTS. As for the experimental part: SK-OV-3, CCRF-CEM, HEK-293, MDA-MB-468, LLC-PK1, and MES-SA were used to determine the cytotoxicity of the synthesized linear and cyclic peptides. About 5000, 10,000, and 50,000 cells were seeded for SK-OV-3, HEK-293, and CCRF-CEM cells, respectively, in 0.1 mL of medium per well of 96-well plates. […]
Adhesive cells were detached with 0.05% trypsin/EDTA after 15 min. […] The cell viability was measured by utilizing Multi-Mode Microplate Reader (SpectraMax M5 model, Molecular Devices, San Jose, CA, USA) after adding 20 µL of the MTS reagent to each well and incubating for 3 additional hours. […] The percentage of cell viability was calculated using the following equation:(1) =(Average OD values of samples treated with the compound /Average OD values of no treatment samples )∗100

For data set [5], the system named is CCRF-CEM cells. The data set can be described thus: In vitro cytotoxicity (MTS) in CCRF-CEM cells. It is filed as cell-based, human. The note with it: 25 µM, MTS, n = 3. The protocol: as §1, §2

`N[C@H](C(=O)O)C(c1ccccc1)c1ccccc1` [Dip, 3,3-diphenyl-L-alanine]: the “Log P (partition coefficient)” value in data set [1] is 2.93.
With `N[C@@H](Cc1c[nH]c2ccccc12)C(=O)O` [W, tryptophan], in data set [1], the “Log P (partition coefficient)” value was 1.82.
On to `N=C(N)NCCC[C@@H]1NC(=O)[C@H](Cc2c[nH]c3ccccc23)NC(=O)[C@H](CCCNC(=N)N)NC(=O)[C@H](Cc2c[nH]c3ccccc23)NC(=O)[C@H](CCCNC(=N)N)NC(=O)[C@H](C(c2ccccc2)c2ccccc2)NC(=O)[C@H](CCCNC(=N)N)NC(=O)[C@H](C(c2ccccc2)c2ccccc2)NC(=O)[C@H](CCCNC(=N)N)NC(=O)[C@H](Cc2c[nH]c3ccccc23)NC1=O` [[(DipR)2(WR)3]] (cyclo([Dip]R[Dip]RWRWRWR)), for which, in data set [2], the “Other (random coil)” value is listed as 47.8%, the Turn is 12.8%, the α-helix was 20.8% and the β-sheet is recorded as 18.6%. Besides, in data set [3], the “morphology of self-assembled structures” value is “star-shaped particles” and the “size of self-assembled structures” value is on record as 1000–2000 nm. The “increase of cellular uptake of F’-GpYEEI vs cargo alone” value with CCRF-CEM cells [4] (F’-GpYEEI 2 µM) is recorded as “approximately 7 fold”.
For `N=C(N)NCCC[C@@H]1NC(=O)[C@H](Cc2c[nH]c3ccccc23)NC(=O)[C@H](CCCNC(=N)N)NC(=O)[C@H](Cc2c[nH]c3ccccc23)NC(=O)[C@H](CCCNC(=N)N)NC(=O)[C@H](C(c2ccccc2)c2ccccc2)NC(=O)[C@H](CCCNC(=N)N)NC(=O)[C@H](Cc2c[nH]c3ccccc23)NC(=O)[C@H](CCCNC(=N)N)NC(=O)[C@H](Cc2c[nH]c3ccccc23)NC1=O` [[(DipR)(WR)4]], in data set [2], the “Other (random coil)” value is 40.5%, the Turn was 13.8%, the α-helix was 28.9% and the β-sheet was 16.8%. Also, the “reduction of cell proliferation” value in the data set with SK-OV-3 cells (SK-OV-3, 10 µM, 72 h incubation) was 40%. Also, the “reduction of cell proliferation” value with SK-OV-3 cells (SK-OV-3, 25 µM, 24 h incubation) is recorded as 76%. For the same compound, in data set [3], the “morphology of self-assembled structures” value is “nanofiber structure” and the “size of self-assembled structures” value was roughly 50 nm. For the same compound, in the data set on HEK-293 cells, the “reduction of cell proliferation” value is on record as 8%. For the same compound, in the data set with CCRF-CEM cells [4] (F’-d4T 2 µM), the “increase of cellular uptake of F’-d4T vs cargo alone” value was found to be 12 fold. Also, in the data set on CCRF-CEM cells [5] (24 h incubation), the “reduction of cell proliferation” value worked out at 47%. Also, the “reduction of cell proliferation” value in the data set with CCRF-CEM cells [5] (72 h incubation) amounted to 32%.

Source of the values: PMC8997995, “Amphiphilic Cell-Penetrating Peptides Containing Natural and Unnatural Amino Acids as Drug Delivery Agents” (Cells, 2022).
